Values after ≈ are worked out from the molar mass of the structure shown. Read-outs that look alike come from different tables or passages of the source. *1 amine or outer side, *2 acyl side, *3 side chain or, on linkers, in order; H or OH if unused. Where a SMILES comes first, the peptide text is derived from it. Bridges are numbered along the chain shown (N, C = ends). [ ]: non-standard residue; d: D form. The star is where a group is joined. ξ: configuration not given here. Phe(3,5-F2) = N[C@@H](Cc1cc(F)cc(F)c1)C(=O)O; Morpholine(3S-CO) = O=C(O)[C@@H]1COCCN1; Pro(4S-Me) = C[C@@H]1CN[C@H](C(=O)O)C1; Pro(4R-Me) = C[C@H]1CN[C@H](C(=O)O)C1; NH(3,4-Me2-phenyl) = Cc1ccc(N*)cc1C; ξPro(4R-OH) = O=C(O)C1C[C@@H](O)CN1; ξPro(4R-Me) = C[C@H]1CNC(C(=O)O)C1; Hyp = O=C(O)[C@@H]1C[C@@H](O)CN1; NH(4-Et-phenyl) = CCc1ccc(N*)cc1; NMeT = CN[C@H](C(=O)O)[C@@H](C)O; Heptenoyl(2E) = CCCC/C=C/C(=O)*; NH(4-Me-phenyl) = Cc1ccc(N*)cc1; aThr = C[C@H](O)[C@H](N)C(=O)O; Pip = O=C(O)[C@@H]1CCCCN1; NMeA = CN[C@@H](C)C(=O)O; X4 = c1cc2c(cc1N*)CCC2; X8 = c1cc2c(cc1N*)CCO2; X6 = Cc1cc(C)cc(N*)c1; CO = O=C([*:1])[*:2]; X7 = CC/C=C/C(=O)*
Columns and labels:
Sa-ClpP = target: T1, Sa-ClpP (Staphylococcus aureus, UniProt Q2G036); experiment: ADEP displacement fluorescence polarization assay (FP probe ADEP 2591); assay type: binding
T1 construct: made in house; host or cells: E. coli BL21(DE3)
T1 sequence (Q2G036 1-195): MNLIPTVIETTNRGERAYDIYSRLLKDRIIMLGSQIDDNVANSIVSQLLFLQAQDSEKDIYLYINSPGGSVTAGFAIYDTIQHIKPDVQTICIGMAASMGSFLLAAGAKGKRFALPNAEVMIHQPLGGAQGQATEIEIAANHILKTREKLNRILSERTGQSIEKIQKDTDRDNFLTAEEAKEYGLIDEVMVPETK
Protocol: A fluorescence polarization (FP) assay was used to determine the activity of the disclosed compounds in displacing an ADEP analogue from ClpP. Briefly, the assay was performed in black 384 well, flat bottom, low volume plates (Greiner Bio-One, Monroe, N.C., catalog #784076). 20 μL of a pre-equilibrated (1 hr, room temperature) master mix (15 μM Sa-ClpP, 2% DMSO (v/v) and 50 nM FP probe in Tris*HCl, pH 8.0)) was pipetted into each well using a Well-Mate (Thermo Scientific, Waltham, Mass.). Sa-ClpP was prepared as described above for the ClpP activation assay. The FP probe was ADEP 2591 (structure shown above). The ADEP 2591 comprises a TAMRA fluorophore linked to a core based on modified ADEP 2378 via a short alkyl linker. Using pin transfer, approximately 0.4 μL (2% v/v DMSO) of each compound or control was added per well. After addition of compounds and controls, plates were allowed to incubate for an additional 120 minutes at room temperature. All assays were performed in triplicate. Polarization was monitored using an EnVision Multilabel reader (Perkin-Elmer, Waltham, Mass.) by exciting the FP probe at 530±25 nm, and monitoring fluorescence intensity of both parallel and perpendicular polarized light at 579±25 nm. Readout was in millipolarization units (mP).
Data collected was normalized to values obtained from positive (200 μM ADEP 2378) or negative (DMSO) controls. Curves were fit with non-linear regression using the equation “log [inhibitor] vs. Response-variable slope (four parameters)-symmetrical” in the program Prism 6 (GraphPad Software, La Jolla, Calif. USA, www.graphpad.com). The structures for ADEP 2378 and ADEP 2591 are shown above. ADEP 2378 is (E)-N—((S)-1-(((2R,6S,8aS,14aS,20S,23aS)-2,6-dimethyl-5,8,14,19,23-pentaoxooctadecahydro-1H,5H,14H,19H-pyrido[2,1-i]dipyrrolo[2,1-c:2′,1′-1][1]oxa[4,7,10,13]tetraazacyclohexadecin-20-yl)amino)-1-oxo-3-phenylpropan-2-yl)pent-2-enamide. ADEP 2591 is 5-(3-(3-((6S,9S,11aS,17S,20aS)-6,10-dimethyl-5,8,11,16,20-pentaoxo-17-((S)-2-((E)-pent-2-enamido)-3-phenylpropanamido)hexadecahydro-1H,5H,16H-dipyrrolo[2,1-c:2′,1′-1][1]oxa[4,7,10,13]tetraazacyclohexadecin-9-yl)propyl)thioureido)-2-(6-(dimethylamino)-3-(dimethyliminio)-3H-xanthen-9-yl)benzoate.

[1] = Cytotoxicity assay (CellTiter-Glo cell viability, 72 hours); assay type: cell-based; settings: African green monkey
Outline: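 Vero cells, 5000/well, grown overnight at 37° C, 5% CO2 in DMEM with 10% FBS, then exposed to serial compound dilutions or DMSO for 72 hours. Viability read by CellTiter-Glo luminescence. IC50 from duplicate wells, reported as range over two independent experiments.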

[2] = test system: Streptococcus pyogenes, ATCC 700294; experiment: Minimal inhibitory concentration assay (microbroth dilution); assay type: cell-based
Outline: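 CLSI broth microdilution: two-fold serial compound dilutions in appropriate broth, inoculated and incubated aerobically overnight at 37° C. MIC read visually as lowest concentration preventing bacterial growth.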

[3] = Vero cells, 72 hours, growth inhibition, read-out: Cytotoxicity IC50
[4] = Streptococcus pyogenes, ATCC700294, read-out: Minimal Inhibitory Concentrations S. pyogenes ATCC 700294

| Structure (SMILES) | IC50 (Sa-ClpP) [µM] | IC50 at 72 h [1, 3] [µM] | MIC [2, 4] [µM] | MIC ([2]; Streptococcus pyogenes, ATCC700294; read-out: Minimal Inhibitory Concentrations S. pyogenes ATCC 700294) [µM] | IC50 at 72 h [1] [µM] |
| --- | --- | --- | --- | --- | --- |
| Cc1ccc(NC(=O)N[C@@H](Cc2cc(F)cc(F)c2)C(=O)N[C@@H]2C(=O)N3C[C@H](O)CC3C(=O)N(C)[C@@H](C)C(=O)N[C@@H](C)C(=O)N3C[C@H](C)CC3C(=O)O[C@H]2C)cc1 (stereo partly drawn) [Compound 31, (S)-3-(3,5-difluorophenyl)-N-((2S,6S,9S,11aS,13R,17S,18S,20aS)-13-hydroxy-2,6,9,10,18-pentamethyl-5,8,11,16,20-pentaoxohexadecahydro-1H,5H,16H-dipyrrolo[2,1-c:2′,1′-l][1]oxa[4,7,10,13]tetraazacyclohexadecin-17-yl)-2-(3-(p-tolyl)ureido)propanamide] ({NH(4-Me-phenyl)-CO}-[Phe(3,5-F2)][aThr][ξPro(4R-OH)][NMeA]A[ξPro(4R-Me)]; ester 2-C) | 5.8 ± 0.3 | > 100 | 0.78 (≈ 0.622 µg/mL) |  |  |
| Cc1ccc(NC(=O)N[C@@H](Cc2cc(F)cc(F)c2)C(=O)N[C@@H]2C(=O)N3CCC[C@H]3C(=O)N(C)[C@@H]([C@@H](C)O)C(=O)N[C@@H](C)C(=O)N3C[C@@H](C)C[C@H]3C(=O)O[C@H]2C)cc1 [Compound 35, (S)-3-(3,5-difluorophenyl)-N-((2S,6S,9S,11aS,17S,18S,20aS)-9-((R)-1-hydroxyethyl)-2,6,10,18-tetramethyl-5,8,11,16,20-pentaoxohexadecahydro-1H,5H,16H-dipyrrolo[2,1-c:2′,1′-l][1]oxa[4,7,10,13]tetraazacyclohexadecin-17-yl)-2-(3-(p-tolyl)ureido)propanamide] ({NH(4-Me-phenyl)-CO}-[Phe(3,5-F2)][aThr]P[NMeT]A[Pro(4S-Me)]; ester 2-C) | 6.6 ± 0.4 | 55.7 ± 3.6 | 0.39 (≈ 0.317 µg/mL) |  |  |
| CCc1ccc(NC(=O)N[C@@H](Cc2cc(F)cc(F)c2)C(=O)N[C@@H]2C(=O)N3C[C@H](O)C[C@H]3C(=O)N3CCCC[C@H]3C(=O)N[C@@H](C)C(=O)N3C[C@H](C)C[C@H]3C(=O)O[C@H]2C)cc1 [Compound 211, (S)-3-(3,5-difluorophenyl)-2-(3-(4-ethylphenyl)ureido)-N-((2R,6S,8aS,14aS,16R,20S,21S,23aS)-16-hydroxy-2,6,21-trimethyl-5,8,14,19,23-pentaoxooctadecahydro-1H,5H,14H,19H-pyrido[2,1-i]dipyrrolo[2,1-c:2′,1′-l][1]oxa[4,7,10,13]tetraazacyclohexadecin-20-yl)propanamide] ({NH(4-Et-phenyl)-CO}-[Phe(3,5-F2)][aThr][Hyp][Pip]A[Pro(4R-Me)]; ester 2-C) | 6.8 ± 0.3 |  |  | < 0.2 |  |
| Cc1ccc(NC(=O)N[C@@H](Cc2cc(F)cc(F)c2)C(=O)N[C@@H]2C(=O)N3C[C@H](O)C[C@H]3C(=O)N3CCCC[C@H]3C(=O)N[C@@H](C)C(=O)N3C[C@H](C)C[C@H]3C(=O)O[C@H]2C)cc1C [Compound 212, (S)-3-(3,5-difluorophenyl)-2-(3-(3,4-dimethylphenyl)ureido)-N-((2R,6S,8aS,14aS,16R,20S,21S,23aS)-16-hydroxy-2,6,21-trimethyl-5,8,14,19,23-pentaoxooctadecahydro-1H,5H,14H,19H-pyrido[2,1-i]dipyrrolo[2,1-c:2′,1′-l][1]oxa[4,7,10,13]tetraazacyclohexadecin-20-yl)propanamide] ({NH(3,4-Me2-phenyl)-CO}-[Phe(3,5-F2)][aThr][Hyp][Pip]A[Pro(4R-Me)]; ester 2-C) | 6.9 ± 0.3 |  | < 0.2 |  |  |
| Cc1ccc(NC(=O)N[C@@H](Cc2cc(F)cc(F)c2)C(=O)N[C@@H]2C(=O)N3C[C@H](O)C[C@H]3C(=O)N3CCOC[C@H]3C(=O)N[C@@H](C)C(=O)N3C[C@H](C)C[C@H]3C(=O)O[C@H]2C)cc1C [Compound 215, (S)-3-(3,5-difluorophenyl)-2-(3-(3,4-dimethylphenyl)ureido)-N-((6aS,8R,12S,13S,15aS,17R,21S,23aS)-8-hydroxy-13,17,21-trimethyl-6,11,15,20,23-pentaoxooctadecahydro-6H,11H,15H-[1,4]oxazino[3,4-i]dipyrrolo[2,1-c:2′,1′-l][1]oxa[4,7,10,13]tetraazacyclohexadecin-12-yl)propanamide] ({NH(3,4-Me2-phenyl)-CO}-[Phe(3,5-F2)][aThr][Hyp][Morpholine(3S-CO)]A[Pro(4R-Me)]; ester 2-C) | 6.8 ± 0.3 |  | < 0.2 |  |  |
| CC/C=C/C(=O)N[C@@H](Cc1cc(F)cc(F)c1)C(=O)N[C@@H]1C(=O)N2C[C@H](O)C[C@H]2C(=O)N2CCCC[C@H]2C(=O)N[C@@H](C)C(=O)N2C[C@H](C)C[C@H]2C(=O)O[C@H]1C [Compound 300] (X7-[Phe(3,5-F2)][aThr][Hyp][Pip]A[Pro(4R-Me)]; ester 2-C) | 5.94 ± 0.3 | > 100 |  |  |  |
| CCCC/C=C/C(=O)N[C@@H](Cc1cc(F)cc(F)c1)C(=O)N[C@@H]1C(=O)N2C[C@H](O)C[C@H]2C(=O)N2CCCC[C@H]2C(=O)N[C@@H](C)C(=O)N2C[C@H](C)C[C@H]2C(=O)O[C@H]1C [Compound 301, (E)-N—((S)-3-(3,5-difluorophenyl)-1-(((2R,6S,8aS,14aS,16R,20S,21S,23aS)-16-hydroxy-2,6,21-trimethyl-5,8,14,19,23-pentaoxooctadecahydro-1H,5H,14H,19H-pyrido[2,1-i]dipyrrolo[2,1-c:2′,1′-l][1]oxa[4,7,10,13]tetraazacyclohexadecin-20-yl)amino)-1-oxopropan-2-yl)hept-2-enamide] ({Heptenoyl(2E)}-[Phe(3,5-F2)][aThr][Hyp][Pip]A[Pro(4R-Me)]; ester 2-C) | 7.07 ± 0.3 | 61.1 ± 1.7 |  |  |  |
| C[C@@H]1C[C@H]2C(=O)O[C@@H](C)[C@H](NC(=O)[C@H](Cc3cc(F)cc(F)c3)NC(=O)Nc3ccc4c(c3)CCC4)C(=O)N3CCC[C@H]3C(=O)N3CCCC[C@H]3C(=O)N[C@@H](C)C(=O)N2C1 [Compound 302, (S)-3-(3,5-difluorophenyl)-2-(3-(2,3-dihydro-1H-INDEN-5-yl)ureido)-N-((2R,6S,8aS,14aS,20S,21S,23aS)-2,6,21-trimethyl-5,8,14,19,23-pentaoxooctadecahydro-1H,5H,14H,19H-pyrido[2,1-i]dipyrrolo[2,1-c:2′,1′-l][1]oxa[4,7,10,13]tetraazacyclohexadecin-20-yl)propanamide] ({X4-CO}-[Phe(3,5-F2)][aThr]P[Pip]A[Pro(4R-Me)]; ester 2-C) | 9.64 ± 0.6 | 13.2 ± 1.1 |  |  |  |
| Cc1cc(C)cc(NC(=O)N[C@@H](Cc2cc(F)cc(F)c2)C(=O)N[C@@H]2C(=O)N3CCC[C@H]3C(=O)N3CCCC[C@H]3C(=O)N[C@@H](C)C(=O)N3C[C@H](C)C[C@H]3C(=O)O[C@H]2C)c1 [Compound 304, (S)-3-(3,5-difluorophenyl)-2-(3-(3,5-dimethylphenyl)ureido)-N-((2R,6S,8aS,14aS,20S,21S,23aS)-2,6,21-trimethyl-5,8,14,19,23-pentaoxooctadecahydro-1H,5H,14H,19H-pyrido[2,1-i]dipyrrolo[2,1-c:2′,1′-l][1]oxa[4,7,10,13]tetraazacyclo-hexadecin-20-yl)propanamide] ({X6-CO}-[Phe(3,5-F2)][aThr]P[Pip]A[Pro(4R-Me)]; ester 2-C) | 6.52 ± 0.3 |  |  |  | 21.3 ± 1.6 |
| C[C@@H]1C[C@H]2C(=O)O[C@@H](C)[C@H](NC(=O)[C@H](Cc3cc(F)cc(F)c3)NC(=O)Nc3ccc4c(c3)CCO4)C(=O)N3CCC[C@H]3C(=O)N3CCCC[C@H]3C(=O)N[C@@H](C)C(=O)N2C1 [Compound 305, (S)-3-(3,5-difluorophenyl)-2-(3-(2,3-dihydrobenzofuran-5-yl)ureido)-N-((2R,6S,8aS,14aS,20S,21S,23aS)-2,6,21-trimethyl-5,8,14,19,23-pentaoxooctadecahydro-1H,5H,14H,19H-pyrido[2,1-i]dipyrrolo[2,1-c:2′,1′-l][1]oxa[4,7,10,13]tetraazacyclo-hexadecin-20-yl)propanamide] ({X8-CO}-[Phe(3,5-F2)][aThr]P[Pip]A[Pro(4R-Me)]; ester 2-C) | 7.65 ± 0.5 | 39 ± 2.7 |  |  |  |
